One data set has as its target T1, h5-HT4b (Homo sapiens, UniProt Q13639).
T1 construct: expressed in transfected cells; host or cells: HEK 293 (clone 9), membrane preparation
The data set can be described thus: 5HT4 antagonism: [3H]GR113808 binding to membranes of h5-HT4b-HEK 293 clone 9 cells. As to conditions: 30 min at 25° C. As for the experimental part:
The cells were then scraped from the plates and suspended in 50 mM Tris-HCl buffer, pH 7.4 and harvested by centrifugation at 23,500 rpm for 10 minutes. The pellet was resuspended in 5 mM Tris-HCl, pH 7.4 and homogenized with an Ultra Turrax homogenizer. The membranes were collected by centrifugation at 30,000 rpm for 20 min, resuspended in 50 mM Tris-HCl pH 7.4 and stored at −80° C. […] 50 μl of 10% DMSO was added for total binding. 50 μl of 1 μM of (+)-trans-(1-butyl-3-hydroxy-4-piperidinyl)methyl 8-amino-7-chloro-2,3-dihydro-1,4-benzodioxin-5-carboxylate (a proprietary 5HT4 agonist of Janssen Pharmaceutica) was added for determination of non-specific binding. The [^3H]GR113808 assay buffer was 50 mM HEPES-NaOH, pH 7.4. The mixtures were incubated for 30 min at 25° C. The incubation was terminated by filtration over a Unifilter 96 GF/B presoaked in 0.1% polyethylenimine, followed by six washing steps with 50 mM HEPES-NaOH, pH 7.4.

Data set [1] in a line: Metabolic stability: incubation with liver microsomes and NADPH-generating system, LC-MS. The note with it: compound 5 μM, microsomes 1 mg/ml, 37 degrees Celsius. It is filed as in vitro ADME. The protocol:
Sub-cellular tissue preparations were made according to Gorrod et al. (Xenobiotica 5: 453-462, 1975) by centrifugal separation after mechanical homogenization of tissue. Liver tissue was rinsed in ice-cold 0.1 M Tris-HCl (pH 7.4) buffer to wash excess blood. Tissue was then blotted dry, weighed and chopped coarsely using surgical scissors. The tissue pieces were homogenized in 3 volumes of ice-cold 0.1 M phosphate buffer (pH 7.4).
Tissue homogenates were centrifuged at 9000×g for 20 minutes at 4° C. The resulting supernatant was stored at −80° C. and is designated ‘S9’.
The S9 fraction can be further centrifuged at 100.000×g for 60 minutes (4° C.). The resulting supernatant was carefully aspirated, aliquoted and designated ‘cytosol’. The pellet was re-suspended in 0.1 M phosphate buffer (pH 7.4) in a final volume of 1 ml per 0.5 g original tissue weight and designated ‘microsomes’.
All sub-cellular fractions were aliquoted, immediately frozen in liquid nitrogen and stored at −80° C. until use.
Control samples contained the same material but the microsomes were replaced by heat inactivated (10 minutes at 95 degrees Celsius) microsomes. Recovery of the compounds in the control samples was always 100%.
The mixtures were preincubated for 5 minutes at 37 degrees Celsius. The reaction was started at time point zero (t=0) by addition of 0.8 mM NADP and the samples were incubated for 60 minutes (t=60). The reaction was terminated by the addition of 2 volumes of DMSO. Then the samples were centrifuged for 10 minutes at 900×g and the supernatants were stored at room temperature for no longer as 24 hours before analysis. All incubations were performed in duplo. Analysis of the supernatants was performed with LC-MS analysis. Elution of the samples was performed on a Xterra MS C18 (50×4.6 mm, 5 μm, Waters, US). An Alliance 2790 (Supplier: Waters, US) HPLC system was used. Elution was with buffer A (25 mM ammoniumacetate (pH 5.2) in H2O/acetonitrile (95/5)), solvent B being acetonitrile and solvent C methanol at a flow rate of 2.4 ml/min. The gradient employed was increasing the organic phase concentration from 0% over 50% B and 50% C in 5 min up to 100% B in 1 minute in a linear fashion and organic phase concentration was kept stationary for an additional 1.5 minutes. Total injection volume of the samples was 25 μl.
A Quatro triple quadrupole mass spectrometer fitted with and ESP source was used as detector. The source and the desolvation temperature were set at 120 and 350° C. respectively and nitrogen was used as nebuliser and drying gas. Data were acquired in positive scan mode (single ion reaction). Cone voltage was set at 10 V and the dwell time was 1 second.
Metabolic stability was expressed as % metabolism of the compound after 60 minutes (equation given as example) of incubation in the presence of active microsomes (E(act))
Background: Microsomes from liver hold many membrane-bound enzymes, among them those of drug oxidation.

Setting [2] is: displacement of 0.1 nM [3H]GR113808, membranes of h5-HT4b-HEK 293 cells, read-out: pIC50 (converted).

Structures can show the parent of a compound that is named as a salt. Where two headings read alike, the source gives them in different places.

T1 sequence (Q13639 whole entry): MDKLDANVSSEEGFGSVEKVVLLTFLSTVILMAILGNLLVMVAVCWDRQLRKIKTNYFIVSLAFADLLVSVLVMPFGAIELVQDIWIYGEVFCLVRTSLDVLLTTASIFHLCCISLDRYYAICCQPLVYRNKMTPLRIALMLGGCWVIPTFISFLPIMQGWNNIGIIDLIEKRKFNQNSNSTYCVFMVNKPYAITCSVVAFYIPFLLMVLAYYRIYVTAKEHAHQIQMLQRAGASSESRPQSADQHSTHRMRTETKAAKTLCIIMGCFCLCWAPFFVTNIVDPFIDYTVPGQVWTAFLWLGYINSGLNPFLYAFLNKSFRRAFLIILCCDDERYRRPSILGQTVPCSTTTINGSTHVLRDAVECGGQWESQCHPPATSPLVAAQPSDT

Regarding `Cc1ccc(C(=O)NCC2CCN(CCCS(=O)(=O)NC(C)C)CC2O)c2c1OCCCO2` (stereo not shown) [Compound 13], the IC50 on h5-HT4b (setting [2]) is 3.39 nM. With `COc1ccc(C(=O)NCC2(O)CCN(CCCCS(N)(=O)=O)CC2)c2c1OCCCO2` [Compound 47], the IC50 on h5-HT4b (setting [2]) is 100 nM. Further, the “% metabolised compound after 60 minutes” value in data set [1] is 0%.

In the case of `COC1CN(CCCCS(N)(=O)=O)CCC1CNC(=O)c1cc(Cl)c(Cl)c2c1OCCCO2` (stereo not shown) [Compound 42], on h5-HT4b (setting [2]), the IC50 is 1.51 nM.

`Cc1ccc(C(=O)NC[C@@H]2CCN(CCS(N)(=O)=O)C[C@H]2O)c2c1OCCCO2` [Compound 23]: the IC50 on h5-HT4b (setting [2]) was 5.75 nM. Moreover, the “% metabolised compound after 60 minutes” value in data set [1] is given as 8%. As to `COC1CN(CCCCS(N)(=O)=O)CCC1CNC(=O)c1cc(Cl)c(Br)c2c1OCCCO2` (stereo not shown) [Compound 43], the IC50 at h5-HT4b (setting [2]) was 1.7 nM. Regarding `Cc1ccc(C(=O)NC[C@@H]2CCN(CCCC(=O)NS(C)(=O)=O)C[C@H]2O)c2c1OCCCO2` (as salt: hydrochloride) [Compound 27], the melting point stood at 142 °C. Regarding `Cc1cc2c(c(C(=O)NCC3CCN(CCCS(N)(=O)=O)CC3O)c1)OCCCO2` (stereo not shown) [Compound 19], the IC50 on h5-HT4b (setting [2]) is 3.39 nM. The “% metabolised compound after 60 minutes” value in data set [1] is given as 14%. For `Cc1ccc(C(=O)NCC2CCN(CCCS(=O)(=O)Nc3ccccc3)CC2O)c2c1OCCCO2` (stereo not shown) [Compound 10], the IC50 on h5-HT4b (setting [2]) was 1.29 nM.

`COc1ccc(C(=O)NCC2CCN(CCCCS(N)(=O)=O)CC2OC)c2c1OCCO2` (stereo not shown) [Compound 6]: on h5-HT4b (setting [2]), the IC50 is 28.8 nM. For the same compound, in data set [1], the “% metabolised compound after 60 minutes” value worked out at 9%. For `Cc1cc2c(c(C(=O)NCC3CCN(CCCCS(N)(=O)=O)CC3O)c1)OCCCO2` (stereo not shown) [Compound 38] the same measures were 11.2 nM and 3%. The corresponding values for `Cc1cc2c(c(C(=O)NC[C@@H]3CCN(CCS(N)(=O)=O)C[C@H]3O)c1)OCCCO2` [Compound 25] are 8.51 nM and 8.5%.

`CS(=O)(=O)NC(=O)CCCN1CC[C@@H](CNC(=O)c2cc(Cl)cc3c2OCCCO3)[C@H](O)C1` [Compound 15] returned a melting point of 110 °C. Moreover, the IC50 at h5-HT4b (setting [2]) is 35.5 nM. Besides, the “% metabolised compound after 60 minutes” value in data set [1] came out at 36%. For the compound `CNS(=O)(=O)CCCN1CC[C@@H](CNC(=O)c2cc(Cl)cc3c2OCCCO3)[C@H](O)C1` (relative stereo) [Compound 33], the IC50 at h5-HT4b (setting [2]) was 2.19 nM. For the compound `NS(=O)(=O)CCCCN1CC[C@@H](CNC(=O)c2cc(Cl)cc3c2OCCCO3)[C@H](O)C1` [Compound 26], the IC50 at h5-HT4b (setting [2]) was 0.676 nM. Also, the “% metabolised compound after 60 minutes” value in data set [1] was 13%.

For the compound `COC1CN(CCCCS(N)(=O)=O)CCC1CNC(=O)c1cc(Cl)cc2c1OCCCO2` (stereo not shown) [Compound 45], the IC50 on h5-HT4b (setting [2]) was 1.38 nM.

With `NS(=O)(=O)CCCCN1CC[C@@H](CNC(=O)c2cc(F)cc3c2OCCCO3)[C@H](O)C1` [Compound 35], the IC50 on h5-HT4b (setting [2]) was 0.407 nM. In addition, the “% metabolised compound after 60 minutes” value in data set [1] amounted to 15%.

On to `COC1CN(CCCS(N)(=O)=O)CCC1CNC(=O)c1cc(C#N)cc2c1OCCCO2` (stereo not shown) [Compound 41], for which the IC50 at h5-HT4b (setting [2]) is 56.2 nM. `Nc1cc2c(c(C(=O)NC[C@@H]3CCN(CCCS(N)(=O)=O)C[C@H]3O)c1)OCCCO2` (relative stereo) [Compound 8]: the melting point was determined as 186 °C. The IC50 at h5-HT4b (setting [2]) was 50.1 nM. For the compound `COc1ccc(C(=O)NCC2CCN(CCCCS(N)(=O)=O)CC2O)c2c1OCCCO2` (stereo not shown) [Compound 40], the IC50 at h5-HT4b (setting [2]) is 158 nM. Further, the “% metabolised compound after 60 minutes” value in data set [1] was 0%. As for `CO[C@@H]1CN(CCCCS(N)(=O)=O)CC[C@H]1CNC(=O)c1cc(F)cc2c1OCCCO2` (relative stereo) [Compound 44], the IC50 on h5-HT4b (setting [2]) is 3.72 nM. In data set [1], the “% metabolised compound after 60 minutes” value is given as 27%. `NS(=O)(=O)CCN1CC[C@@H](CNC(=O)c2cc(Cl)cc3c2OCCCO3)[C@H](O)C1` [Compound 22] came in with a melting point of 162 °C. Also, at h5-HT4b (pIC50, displacement of 0.1 nM [3H]GR113808, membranes of h5-HT4b-HEK 293 cells), the IC50 was 5.37 nM. The “% metabolised compound after 60 minutes” value in data set [1] was 28.5%.

Regarding `NS(=O)(=O)CCCCN1CC[C@@H](CNC(=O)c2cc(Cl)c(Cl)c3c2OCCCO3)[C@H](O)C1` (relative stereo) [Compound 30], the IC50 at h5-HT4b (setting [2]) is 1.7 nM. In addition, the “% metabolised compound after 60 minutes” value in data set [1] is reported as 12%. The corresponding values for `NS(=O)(=O)CCCCN1CCC(CNC(=O)c2cc(F)cc3c2OCCCO3)C(O)C1` (stereo not shown) [Compound 39] are 12.6 nM and 2%.

With `NS(=O)(=O)CCCCN1CC[C@@H](CNC(=O)c2cc(F)cc3c2OCCO3)[C@H](O)C1` [Compound 7], the IC50 on h5-HT4b (setting [2]) is 1.86 nM. For the same compound, the “% metabolised compound after 60 minutes” value in data set [1] was determined as 3%.

As for `CC(C)NS(=O)(=O)CCCN1CCC(CNC(=O)c2cc(Cl)cc3c2OCCCO3)C(O)C1` (stereo not shown) [Compound 14], the IC50 at h5-HT4b (setting [2]) was 1.95 nM. With `CNS(=O)(=O)CCCN1CC[C@@H](CNC(=O)c2ccc(C)c3c2OCCCO3)[C@H](O)C1` [Compound 34], the IC50 on h5-HT4b (setting [2]) was 1.15 nM. On to `NS(=O)(=O)CCCN1CCC(CNC(=O)c2cc(Cl)cc3c2OCCCO3)C(O)C1` (stereo not shown) [Compound 21], for which, on h5-HT4b (setting [2]), the IC50 is 3.02 nM. Also, the “% metabolised compound after 60 minutes” value in data set [1] stood at 21%. For `Cc1ccc(C(=O)NCC2CCN(CCCS(N)(=O)=O)CC2O)c2c1OCCCO2` (stereo not shown) [Compound 18] the same measures were 5.25 nM and 7%. For the compound `COC1CN(CCCS(N)(=O)=O)CCC1CNC(=O)c1cc(F)cc2c1OCCCO2` (stereo not shown) [Compound 46], the IC50 at h5-HT4b (setting [2]) is 4.17 nM.

For the compound `O=C(NCC1CCN(CCCS(=O)(=O)Nc2ccccc2)CC1O)c1cc(Cl)cc2c1OCCCO2` (stereo not shown) [Compound 17], the IC50 on h5-HT4b (setting [2]) was 1.78 nM.

For `NS(=O)(=O)CCCCN1CCC(CNC(=O)c2cc(Cl)c(Br)c3c2OCCCO3)C(O)C1` (stereo not shown) [Compound 31], the IC50 at h5-HT4b (setting [2]) is 0.891 nM. Also, the “% metabolised compound after 60 minutes” value in data set [1] is reported as 18%. The corresponding values for `Cc1cc2c(c(C(=O)NCC3CCN(CCCCS(N)(=O)=O)CC3O)c1)OCCCO2` (stereo not shown) [Compound 20] are 4.68 nM and 2%. As for `Cc1cc2c(c(C(=O)NCC3(O)CCN(CCCCS(N)(=O)=O)CC3)c1)OCCCO2` [Compound 48], the IC50 on h5-HT4b (setting [2]) is 20.9 nM. Also, the “% metabolised compound after 60 minutes” value in data set [1] is listed as 6%. The corresponding values for `CNS(=O)(=O)CCCN1CCC(CNC(=O)c2cc(C)cc3c2OCCCO3)C(O)C1` (stereo not shown) [Compound 24] are 2.88 nM and 53%. As to `Cc1cc2c(c(C(=O)NC[C@@H]3CCN(CCCS(=O)(=O)NC(C)C)C[C@H]3O)c1)OCCCO2` (relative stereo) [Compound 11], on h5-HT4b (setting [2]), the IC50 was 3.98 nM.

For the compound `Cc1ccc(C(=O)NC[C@@H]2CCN(CCCC(=O)NS(C)(=O)=O)C[C@H]2O)c2c1OCCCO2` [Compound 27], the IC50 at h5-HT4b (setting [2]) is 12 nM. The “% metabolised compound after 60 minutes” value in data set [1] is on record as 5%. The corresponding values for `COc1ccc(C(=O)NC[C@@H]2CCN(CCCCS(N)(=O)=O)C[C@H]2O)c2c1OCCCO2` [Compound 32] are 3.63 nM and 0%.

For the compound `Cc1cc2c(c(C(=O)NC[C@@H]3CCN(CCCS(=O)(=O)Nc4ccccc4)C[C@H]3O)c1)OCCCO2` (relative stereo) [Compound 12], the IC50 on h5-HT4b (setting [2]) was 1.62 nM.

The term melting point denotes the temperature, or range, at which the solid turns liquid.

Source of the values: patent US8334304B2, “Aminosulfonyl substituted 4-(aminomethyl)-piperidine benzamides as 5HT4-antagonists” (Janssen Pharmaceutica N.V., priority 2003, dated 2012).
